Publication PMC9316000, “Preclinical Drug Pharmacokinetic, Tissue Distribution and Excretion Profiles of the Novel Limonin Derivate HY-071085 as an Anti-Inflammatory and Analgesic Candidate in Rats and Beagle Dogs” (Pharmaceuticals, 2022)
“Also recorded” adds a separate entry of the source. Where two headings read alike, the source gives them in different places.

What was measured:
[1] = set-up: method as in earlier work; settings: cited from earlier work
[2] = Pharmacokinetics after repeated-dose intragastric administration in rats; type: in vivo, Sprague Dawley rats; settings: for CL/F at 14 days / MRT at 14 days / CL/F at 28 days / MRT at 28 days / Tmax at 14 days / Cmax at 14 days / half-life at 14 days / Vd/F at 14 days / Cmax at 28 days / Tmax at 28 days / half-life at 28 days / Vd/F at 28 days / AUC(0-inf) / AUC: rat, plasma, po, R-IG 6.5 mg/kg; for Vd/F at 14 days / Vd/F at 28 days: read-out: Vss/F; for decrease of plasma exposure level compared with single administration / AUC(0-inf) / AUC: 6.5 mg/kg; for decrease of plasma exposure level compared with single administration: after 28 days of continuous administration; for plasma drug exposure level as % of the single dose: 28th day of intragastric administration; for AUC: read-out: AUC0-tn
Method: Male and female rats were given HY-071085 (6.5 mg/kg) by gastric gavage twice a day for 28 days. […] After 28 days of continuous administration, the plasma exposure levels of the male and female rats decreased by 49% and 85%, respectively, compared with that after a single administration (Figure 6).
In vivo PK profiling in the rats: Sprague Dawley rats (approximately 177–221 g in weight) were purchased from Shanghai Xipur-Bikai Experimental Animal Co., Ltd. (Shanghai, China). Before the experiment, several rats were randomly divided into several groups, half males and half females in each group, fasting but free to drink water for 12 h. The dosage of the rats was dependent on the drug pharmacology: the HY-071085 active pharmaceutical ingredients were administered with a dosage volume of 0.25 mL/100 g body weight. The whole-blood samples were centrifuged at 8000 rpm for 5 min, and the plasma samples were separated and stored at –80 °C until the analysis.
(§1) According to the obtained plasma concentration time data, the pharmacokinetic parameters were calculated using Phoenix WinNonlin 8.1 software. The pharmacokinetic parameters—i.e., the area under the curve (AUC), mean residence time (MRT), clearance rate (Cl/F) and steady-state apparent distribution volume (Vss/F)—were calculated by the method of moments, which was estimated according to the following formulae: AUCtn=∑Ci+Ci−1ti−ti−1/2 AUC∞=AUCtn+Cm/λ AUMCtn=∑tiCi+ti−1Ci−1ti−ti−1/2 AUMC∞=AUMCtn+Ctntn/λ+1/λ^2 MRT=AUMC∞/AUC∞ Cl/F=Dose/AUC Vss/F=Cl∗MRT where Ctn is the plasma concentration of tn at the last point after administration, and the elimination rate constant was obtained by ln(concentration) time linear regression.
(§2) Due to the drug having significant individual differences in rats, it could not be uniformly fitted with a PK atrioventricular model; as such, the pharmacokinetic parameters analyzed in this study were calculated using a non-atrioventricular model. The pharmacokinetic parameters are defined as follows: Cmax is the maximum blood concentration after administration and absorption, Tmax is the time required to reach Cmax, t1/2 is the time required to eliminate half of the plasma drug concentration after the drug distribution in the body reaches equilibrium, Cl/F is the apparent clearance rate, AUC0-tn is the area under the blood concentration time curve within the dosing interval, AUC0-∞ is the area under the plasma concentration time curve from 0 to infinity, MRT is the average time that all drug molecules stay in the body, and Vss/F is the steady-state apparent distribution volume, which is the product of the clearance rate and average residence time.

[3] = Pharmacokinetics after single-dose intravenous administration in beagle dogs; type: in vivo; settings: S-IV 1.25 mg/kg
Method: After the intravenous administration of 1.25 mg/kg HY-071085, there was also no gender difference for the plasma concentration time data in Figure 9.
In vivo PK profiling in dogs: Beagle dogs (approximately 8–10 kg in weight) were purchased from Jiangsu Yadong Experimental Animal Research Institute Co. Ltd (Nanjing, China). Before the experiment, several beagle dogs were randomly divided into several groups, half males and half females in each group. Four cycles of single-dose administration experiments were carried out, and the cleaning period was 3–5 days. Repeated-dose administration was carried out after the end of four cycles of single-dose administrations and cleaning periods. According to the dosage for the rats, the dosage for the beagle dogs was converted via the body surface area method. The HY-071085 active pharmaceutical ingredients were administered with a dosage volume of 2 mL/kg body weight. The whole-blood samples were centrifuged at 8000 rpm for 5 min, and the plasma samples were separated and stored at –80 °C until the analysis.
as §1, §2

[4] = set-up: method as in earlier work; settings: Temp 25℃; cited from earlier work
[5] = set-up: method as in earlier work; settings: Temp 25℃, pH 7.4; cited from earlier work
[6] = Tissue distribution in rats; type: in vivo; settings: S-IG 13 mg/kg
Method: The male and female rats were euthanized by femoral artery bleeding under anesthesia after the single-dose intragastric administration of HY-071085 (13 mg/kg) for 10 min, 45 min and 4 h, and the tissues were separated for the analysis of the concentration of HY-071085 in the homogenate.
Tissue distribution in rats: Rats were randomly allocated into three groups (10 rats/group) for the tissue distribution studies. These rats were sacrificed at 10 min, 45 min and 4 h after orally administering HY-071085. Fourteen organs—the heart, liver, spleen, lung, kidney, stomach, gut, muscle, fat, skin, brain, ovary (female), womb (female) and testis (male)—were removed, washed in normal saline, and dried with filter papers immediately. The organs were accurately weighed and individually homogenized with an appropriate amount of deionized water. The tissue homogenate was stored at –80 °C until analysis.

[7] = Plasma protein binding, dog plasma; type: in vitro ADME; settings: read-out: plasma protein binding rate (converted)
Method: The PPB rate in dogs was about 40% at different concentrations in the concentration range (50–400 ng/mL), and in rats it was about 75%. The PPB rate in human plasma varied greatly at different concentrations, ranging from 100% at a low drug concentration to 58% at a high drug concentration, as shown in Table 4.

[8] = Sprague Dawley, female rats, 14 days
[9] = Sprague Dawley, female rats, 28 days
[10] = Sprague Dawley, male rats, 14 days
[11] = Sprague Dawley, male rats, 28 days
[12] = Sprague-Dawley, female rats, 14 days
[13] = Sprague-Dawley, female rats, 28 days
[14] = Sprague-Dawley, male rats, 14 days
[15] = Sprague-Dawley, male rats, 28 days
[16] = female, Sprague Dawley, female rats, 14 days
[17] = female, Sprague Dawley, female rats, 28 days
[18] = male, Sprague Dawley, male rats, 14 days
[19] = male, Sprague Dawley, male rats, 28 days

## CC1(C)OC2CC(=O)OCC23C1C/C(=N\OCCN1CCOCC1)C1(C)C3CC[C@@]2(C)[C@H](c3ccoc3)OC(=O)C3OC312 (stereo partly drawn) [HY-071085, (12S,12aS,E)-12-(furan-3-yl)-6,6,8a,12a-tetramethyl-8-((2-morpholinoethoxy)imino)dodecahydro-1H,3H-oxireno [2,3-d]pyrano [4’,3’:3,3a]isobenzofuro [5,4-f]isochromene-3,10(9aH)-dione]
[1]
  pKa: 6.11
[2]; [8]
  CL/F at 14 days: 630 mL/min/kg
  MRT at 14 days: 2.18 ± 0.27 h
[2]; [9]
  CL/F at 28 days: 1730 mL/min/kg
  MRT at 28 days: 2.54 ± 1.15 h
[2]; [10]
  CL/F at 14 days: 836 mL/min/kg
  Tmax at 14 days: 0.65 ± 0.38 h
[2]; [11]
  CL/F at 28 days: 1860 mL/min/kg
  MRT at 28 days: 1.74 ± 0.86 h
[2]; [12]
  Cmax at 14 days: 125 ± 80.3 ng/mL
  Tmax at 14 days: 0.68 ± 0.75 h
  half-life at 14 days: 1.38 ± 0.24 h
  Vd/F at 14 days: 80 ± 51 L/kg
[2]; [13]
  Cmax at 28 days: 37.2 ± 19.9 ng/mL
  Tmax at 28 days: 0.33 ± 0.16 h
  half-life at 28 days: 1.75 ± 1.14 h
  Vd/F at 28 days: 292 ± 251 L/kg
[2]; [14]
  Cmax at 14 days: 63.2 ± 11.2 ng/mL
  MRT at 14 days: 2.26 ± 0.33 h
  half-life at 14 days: 1.52 ± 0.23 h
  Vd/F at 14 days: 108 ± 13.8 L/kg
[2]; [15]
  Cmax at 28 days: 38.9 ± 12.7 ng/mL
  Tmax at 28 days: 0.6 ± 0.78 h
  half-life at 28 days: 1.11 ± 0.41 h
  Vd/F at 28 days: 169 ± 35.2 L/kg
[2]; female rats
  decrease of plasma exposure level compared with single administration: 85%
  plasma drug exposure level as % of the single dose: about 15%
[2]; [16]
  AUC(0-inf): 233 ± 159 ng·h/mL
  AUC: 229 ± 159 ng·h/mL
[2]; [17]
  AUC(0-inf): 70.2 ± 28.8 ng·h/mL
  AUC: 65.8 ± 28.9 ng·h/mL
[2]; male rats
  decrease of plasma exposure level compared with single administration: 49%
  plasma drug exposure level as % of the single dose: about 50%
[2]; [18]
  AUC(0-inf): 133 ± 22.3 ng·h/mL
  AUC: 127 ± 22.4 ng·h/mL
[2]; [19]
  AUC(0-inf): 59.9 ± 10.5 ng·h/mL
  AUC: 55 ± 8.82 ng·h/mL
[3]
  Cl/F: 51.2 ± 24.2 mL/min/kg
  Vss/F: 2.07 ± 1.17 L/kg
[3]; both sexes, dog, plasma
  AUC(0-inf): 594 ± 538 ng·h/mL
  Cmax: 1200 ± 1510 ng/mL
  MRT: 0.62 ± 0.2 h
  Tmax: 5.4 ± 1.8 min
  half-life: 0.7 ± 0.09 h
[3]; both sexes, dog, plasma, read-out: AUC0-tn
  AUC: 591 ± 539 ng·h/mL
[4]
  logP: 2.8023
[5]
  LogD: 2.45
[6]
  concentration in the brain: extremely low
[6]; 10 min, 45 min and 4 h
  tissue distribution: mainly distributed in the gastric, intestine, liver, spleen, lung and kidney tissues; also recorded: mainly distributed in most of the tissues except the brain
[7]; 50 ng/mL, mean
  fraction unbound at 50 ng/mL: 0.622
[7]; 100 ng/mL, mean
  fraction unbound at 100 ng/mL: 0.671
[7]; 200 ng/mL, mean
  fraction unbound at 200 ng/mL: 0.578
[7]; 400 ng/mL, mean
  fraction unbound at 400 ng/mL: 0.545
[7]; dog, dogs, concentration range 50–400 ng/mL
  fraction unbound: ~0.6
